Laboratory results reported in US4629728A, “Antihypoxemic 5-(4-substituted piperazinyl)alkyl-8-substituted quinolines” (ADIR S.A.R.L., priority 1984, dated 1986).
Like-named read-outs stand apart in the source and are kept apart here.

What was measured:
[1] = prolongation of life in acute global ischemic syndrome by intravenous injection of magnesium chloride; format: in vivo; settings: mice; for minimal effective dose: Mus musculus
Description: The compounds of general formula I are tested by their capacity to prolong the life of mice submitted to an acute global ischemic syndrome by intravenous injection of magnesium chloride.

[2] = cerebral oedema by hypoperfusion of 1 hour (ischemic syndrome) or by triethyl tin per os; format: in vivo; settings: reference substances
[3] = survival in acute global hypoxic syndrome due to inhalation of pure azote; format: in vivo; settings: Mus musculus; mice, intraperitoneal route or per os; read-out: average effective dose (ED50) increasing the survival time by 50% in relation to the control animals
Description: In the same way, the compounds of general formula I show a protective effect in mice during an acute global hypoxic syndrome due to inhalation of pure azote. The beneficial action is seen at the same doses as for the previous test. The same effective dose relation is found with the reference substances.
The average effective dose (ED50) increasing the survival time by 50% in relation to the control animals is approximately 3 mg/kg when these compounds are administered by intraperitoneal route or per os particularly with the compounds of Examples 38, 40, 51 and 54 described herein after.

cortical electrogenesis = assay: iterative anoxias test (losses of cortical electrogenesis); format: in vivo; settings: rats, administered intravenously
Description: The protective activity vis-a-vis the losses of cortical electrogenesis connected to the ischemic or hypoxic syndrome is evaluated by the iterative anoxias test in rats. […] After the second anoxia, whilst the control animals no longer recuperate their electrocortical activity, the animals treated with the compounds in particular the compounds described in Examples 30, 37, 38, 40 and 54 recover it when they have received by IV perfusion 33 micro g/kg of these. The reference substances only restore it later, at the 120th second for eburnamonine or nicergoline.

[4] = test system: mitochondrias of the cerebral cortex; assay: oxidative phosphorylation capacity of mitochondrias of the cerebral cortex after an ischemic syndrome; format: in vivo, rats; settings: ischemied rat, reference products
Excerpt: These same compounds show their pharmacological action vis-a-vis losses of the oxidative phosphorylation capacity of mitochondrias of the cerebral cortex obtained after an ischemic syndrome in rats. […] The same activity is only obtained for the reference products with dihydroergotoxine.

[5] = ip, intraperitoneal route, MgCl2 i.v., read-out: dose from which life of ischemied mice is significantly prolonged

| Molecule | minimal effective dose [1, 5] [mg/kg] | ED50 [3] [mg/kg] | other results |
| --- | --- | --- | --- |
| CC[C@]12CCCN3CCc4c(n(c5ccccc45)[C@@](O)(C(=O)OC)C1)[C@@H]32 [vincamine, reference compound] | – | – | minimal effective dose ([1]; po, per os, reference substances, read-out: effective dose per os (inactive up to / no effect below)): ≥ 100 mg/kg; higher dose needed for equally intense anti-oedema protective activity (relative to the compounds) [2]: 5 times more |
| COc1ccccc1N1CCN(CCc2ccc(OS(C)(=O)=O)c3c2CCCN3)CC1 [Example 30, 5-{2-[4-(2-methoxyphenyl)piperazinyl]ethyl}-8-methylsulfonyloxy-1,2,3,4-tetrahydro quinoline] | 1 | – | – |
| COc1ccccc1N1CCN(CCc2ccc(OC)c3c2CCCN3C(C)=O)CC1 [Example 40, 1-acetyl-5-{2-[4-(2-methoxyphenyl)piperazinyl]ethyl}-8-methoxy-1,2,3,4-tetrahydro quinoline] | 1 | ~3 | – |
| dihydroergotoxine | – | – | effective dose per os (inactive up to / no effect below) ([1]; per os, reference substances): > 10 mg/kg; activity in iterative anoxias test compared with the compounds (cortical electrogenesis): comparable activity; activity on mitochondrial oxygen consumption compared with the compounds [4]: same activity |
| COc1ccccc1N1CCN(CCc2ccc(O)c3c2CCCN3C)CC1 [Example 51, 1-methyl-5-{2-[4-(2-methoxyphenyl)piperazinyl]ethyl}-8-hydroxy-1,2,3,4-tetrahydro quinoline] | – | ~3 | – |
| CO[C@]12C[C@@H](COC(=O)c3cncc(Br)c3)CN(C)[C@@H]1Cc1cn(C)c3cccc2c13 [nicergoline] | – | – | higher dose needed for equally intense anti-oedema protective activity (relative to the compounds) [2]: 3 times more |
| COc1ccccc1N1CCN(CCc2ccc(OC)c3c2CCCN3C=O)CC1 [Example 54, 1-formyl-5-{-2-[4-(2-methoxyphenyl)piperazinyl]ethyl}-8-methoxy-1,2,3,4-tetrahydro quinoline] | 1 | ~3 | – |
| CC(=O)N1CCCc2c(CCN3CCN(c4ccccn4)CC3)ccc(O)c21 [Example 38, 1-acetyl-5-{2-[4-(2-pyridyl)piperazinyl]ethyl}-8-hydroxy-1,2,3,4-tetrahydro quinoline] | 1 | ~3 | – |
